Data published in article PMC10063609, “Discovery of novel cardiac troponin activators using fluorescence polarization-based high throughput screening assays” (Scientific Reports, 2023).
Where a name gives a salt, the structure may show the parent alone. Read-outs that look alike come from different tables or passages of the source. One block for each compound: values may come before it.

What was measured:
[1] = target: interaction between cTnC and switch peptide of cTnI (cTnISP) (Homo sapiens, UniProt P63316); assay: Fluorescence polarization HTS and dose-response, cTnC/FAM-cTnISP; type: binding; settings: for FP (mP): cTnISP primary screen, single concentration 50 μmol/L; for Effect on FP from a mixture of FAM-cTnISP and cTnC: dose-response, concentration dependent (Fig. 2a)
[2] = test system: bovine cardiac myofibrils; assay: NADH-coupled ATPase activity of isolated cardiac myofibrils; type: biochemical; settings: for Effect on ATPase activity of cardiac myofibrils: submaximal calcium activation (~30% of maximum), pCa 6, up to 100 μmol/L; for Decrease of myofibrilar ATPase activity / Effect on myofibrillar ATPase activity: sub-maximal activation (~70% of maximal); for Decrease of myofibrilar ATPase activity: pCa 5.8; for Effect on myofibrillar ATPase activity: pCa 5.8, up to 100 μmol/L
[3] = target: interaction between cTnC and the anchoring region of cTnI (cTnIAR) (Homo sapiens, UniProt P63316); assay: Fluorescence polarization HTS, binding and dose-response, cTnC/FAM-cTnIAR; settings: for FP (mP): cTnIAR primary screen, single concentration 10 μmol/L; for FP at higher drug concentrations: > 10 μmol/L, potentially assay interference; for Total fluorescence intensity of the assay mixture: concentrations of up to 100 μmol/L, 2 nmol/L FAM-cTnIAR, 5 nmol/L cTnC; for Effect on FP from the cTnC FAM-cTnIAR mixture: dose-response, concentration dependent (Fig. 2c)
[4] = Solubility in aqueous buffer; type: physicochemical
Protocol: Figure S2. […] D MSO stocks of NS5806 were diluted with assay
buffer to the indicated concentrations (fixed DMSO concentration of 0.1% (v/v)), potential
aggregates removed by ultra -centrifugation and the absorbance at 296 nm plotted against the
in aqueous buffers up to a concentration of at least 500 µmol/L. (B) Total fluorescent intensity
dose-response curves for Claramine (red) and Furamidine (green) in the presence of 2 nmol/L
(1 picture or pasted object on this page, not shown here)

[5] = target: cTnC-cTnIAR interaction (Homo sapiens, UniProt P63316); assay: ITC titration of unlabelled cTnIAR peptide into cTnC without or with compound
[6] = test system: demembranated human donor ventricular tissue; assay: Force-pCa titrations of demembranated human donor myocardium; type: cell-based; settings: 100 μmol/L, 2 μm sarcomere length
[7] = target: Ca2+-saturated cTnC (Homo sapiens, UniProt P63316); assay: ITC binding to full length Ca2+-saturated cTnC; settings: for Kd: means ± SEM, n = 3

FP (mP) ([3]; ENZO Screenwell library): 116.5 mP
Compound: CC1Cc2ccccc2N1NC(=O)c1ccc(Cl)c(S(N)(=O)=O)c1 (centres unmarked) [Indapamide]

Effect on myofibrillar ATPase activity [2]: no effect | FP (mP) ([3]; LOPAC 1280 library): 71.7 mP | Effect on FP from the cTnC FAM-cTnIAR mixture [3]: decreased the FP
Compound: O=C(O)c1cccc(-c2ccc(-c3cn(C(=O)N4CCCCC4Cc4ccccc4)nn3)cc2)c1 (centres unmarked) [KT203]

FP (mP) ([3]; LOPAC 1280 library): 121.9 mP
Compound: O=C(O)c1ccc(-c2ccc(/C=C3\SC(=S)N(Cc4ccccc4)C3=O)o2)cc1 [Leukadherin-1]

FP (mP) ([1]; TOCRIScreen library): 121.6 mP | Effect on FP from a mixture of FAM-cTnISP and cTnC [1]: increased the FP
Compound: O=C(Nc1cccc(C(F)(F)F)c1)Nc1ccc(Br)cc1-c1nn[nH]n1 [NS3623]
Effect on ATPase activity of cardiac myofibrils [2]: significantly increased the ATPase activity

FP (mP) ([3]; ENZO Screenwell library): 70.9 mP
Compound: NC(=O)N1c2ccccc2CC(=O)c2ccccc21 [Oxcarbazepine]

FP (mP) ([3]; TOCRIScreen library): 103.2 mP
Compound: CCOc1cc(CC(=O)N[C@@H](CC(C)C)c2ccccc2N2CCCCC2)ccc1C(=O)O [Repaglinide]

FP (mP) ([1]; LOPAC 1280 library): 83.7 mP | FP (mP) ([3]; LOPAC 1280 library): 44.3 mP
Compound: N.N.N.N.N.N.N.N.N.N.N.N.N.N.[Cl-].[Cl-].[Cl-].[Cl-].[Cl-].[Cl-].[O-2].[O-2].[Ru+3].[Ru+3].[Ru+4] [Ruthenium red]

FP (mP) ([3]; LOPAC 1280 library): 65 mP
Compound: Oc1c2ccccc2c2c3c(cccc13)N=N2 [SP600125]

FP (mP) ([1]; TOCRIScreen library): 79 mP
Compound: COc1ccc(CCN(C)CCCOc2ccc(S(=O)(=O)c3c(C(C)C)c4ccccc4n3C)cc2)cc1OC.O=C(O)C(=O)O [SR 33805 oxalate]

Continued, compound first:

Compound: CC(C)c1cccc(C(C)C)c1N1C(=O)c2ccc(O)cc2C1=O [5-HPP-33]
FP (mP) ([1]; LOPAC 1280 library): 112 mP | Effect on FP from a mixture of FAM-cTnISP and cTnC [1]: increased the FP | Effect on ATPase activity of cardiac myofibrils [2]: no or little activation

Compound: O=C(NCc1ccc(C(F)(F)F)cc1)Nc1cccc2cnccc12 [A 425619]
FP (mP) ([3]; TOCRIScreen library): 105.5 mP

Compound: O=C(O)C[C@H]1CC[C@H](c2ccc(NC(=O)c3nnc(Nc4ccc(F)c(F)c4)o3)cc2)CC1 [AZD 3988]
FP (mP) ([3]; TOCRIScreen library): 115.5 mP

Compound: O=C(O)c1ccc(/C=C2\SC(=S)N(c3cccc(C(F)(F)F)c3)C2=O)cc1 [CFTR Inh172]
FP (mP) ([1]; TOCRIScreen library): 127.9 mP | Effect on FP from a mixture of FAM-cTnISP and cTnC [1]: increased the FP | Effect on ATPase activity of cardiac myofibrils [2]: no or little activation

Compound: N.N.O=C([O-])C1(C(=O)[O-])CCC1.[Pt+2] [Carboplatin]
FP (mP) ([3]; ENZO Screenwell library): 67.3 mP

Compound: [H]/N=C(\N/C(=N/[H])NCCCCCCNC(=N)NC(=N)Nc1ccc(Cl)cc1)Nc1ccc(Cl)cc1 [Chlorhexidine Dihydrochloride]
FP (mP) ([3]; ENZO Screenwell library): 58.8 mP

Compound: N.N.[Cl][Pt][Cl] [Cisplatin, Cis-Diamineplatinum(Ii) Dichloride]
FP (mP) ([3]; ENZO Screenwell library): 61.9 mP | FP (mP) ([3]; LOPAC 1280 library): 56.6 mP

Compound: CC(C)CCCC(C)C1CCC2C3CC(NCCCNCCCCNCCCN)C4CC(O)CCC4(C)C3CCC12C (centres unmarked) [Claramine]
solubility ([4]; aqueous solutions, read-out: Solubility in aqueous solutions): > 25 mM | Decrease of myofibrilar ATPase activity [2]: 40–50% | Effect on the interaction / binding affinity of cTnC for cTnIAR [5]: no or little effect | FP at higher drug concentrations [3]: sudden increase in the FP | FP (mP) ([3]; LOPAC 1280 library): 53.9 mP | Total fluorescence intensity of the assay mixture [3]: not affected | Effect on FP from the cTnC FAM-cTnIAR mixture [3]: decreased the FP | Effect on calcium sensitivity / force-pCa relation [6]: no or little effect | T∆S [7]: 5.21 ± 0.311 kcal/mol | ∆H [7]: -1.1 ± 0.311 kcal/mol | Kd [7]: 21.6 ± 1.8 µM

Compound: Cc1ccc2[nH]c(=O)c(C3=NN(C(=O)CCC(=O)O)C(c4ccc(Br)cc4)C3)c(-c3ccccc3)c2c1 (centres unmarked) [DQP 1105]
FP (mP) ([3]; TOCRIScreen library): 103 mP

Compound: Cc1cn[nH]c1 [Fomepizole]
FP (mP) ([3]; ENZO Screenwell library): 118 mP

Compound: N=C(N)c1ccc(-c2ccc(-c3ccc(C(=N)N)cc3)o2)cc1 [Furamidine]
solubility [4]: > 25 mM | FP (mP) ([1]; LOPAC 1280 library): 91.8 mP | FP (mP) ([1]; TOCRIScreen library): 83.1 mP | Decrease of myofibrilar ATPase activity [2]: 40–50% | Effect on the interaction / binding affinity of cTnC for cTnIAR [5]: reduced by several orders of magnitude | FP at higher drug concentrations [3]: sudden increase in the FP | FP (mP) ([3]; TOCRIScreen library): 73.2 mP | Total fluorescence intensity of the assay mixture [3]: not affected | Effect on FP from the cTnC FAM-cTnIAR mixture [3]: decreased the FP | Effect on calcium sensitivity / force-pCa relation [6]: slightly increased the calcium sensitivity | Effect on maximal isometric force development [6]: no effect | Steepness of the force-pCa relation (nH) [6]: no effect | T∆S [7]: 1.84 ± 0.72 kcal/mol | ∆H [7]: -4.64 ± 0.758 kcal/mol | Kd [7]: 11.9 ± 5.5 µM

Compound: CN(C)CCCn1cc(C2=C(c3c[nH]c4ccccc34)C(=O)NC2=O)c2ccccc21 [GF 109203X]
FP (mP) ([1]; TOCRIScreen library): 82.4 mP | FP (mP) ([3]; TOCRIScreen library): 104.5 mP

Compound: CCn1c(-c2nonc2N)nc2cnc(Oc3cccc(NC(=O)c4ccc(OCCN5CCOCC5)cc4)c3)cc21 [GSK 269962]
FP (mP) ([3]; TOCRIScreen library): 104.8 mP

Compound: CN(C)c1cc2c(Nc3ccc4c(cnn4Cc4ccccc4)c3)ncnc2cn1 [GW2974]
FP (mP) ([3]; LOPAC 1280 library): 117.8 mP

Compound: COc1ccc(-c2oc3c(CC=C(C)C)c(O)cc(O)c3c(=O)c2O)cc1 [Icaritin]
Effect on myofibrillar ATPase activity [2]: no effect | FP (mP) ([3]; LOPAC 1280 library): 64.6 mP | Effect on FP from the cTnC FAM-cTnIAR mixture [3]: decreased the FP

Compound: O=C1c2c(O)ccc(O)c2C(=O)c2c(NCCNCCO)ccc(NCCNCCO)c21 [Mitoxantrone]
FP (mP) ([3]; LOPAC 1280 library): 57.1 mP
